Data published in patent publication US12545685B2 (Daiichi Sankyo Company, Limited, priority 2011, dated 2026).

Molecular target: T1, Mdm2/p53 binding (GST-Mdm2 / His-p53) (Homo sapiens, UniProt Q00987, L33E)
T1 construct: Mdm2 partial protein having Mdm2 amino acids at positions 25 to 108
Assay: Mdm2/p53 binding assay (HTRF, His-p53 and GST-Mdm2)
Conditions: His-p53 (aa 1-132) and GST-Mdm2 (aa 25-108, L33E) 6.25 nM each; 25°C, 1 hour; values given as ranges
How it was run: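 Binding was detected by HTRF (ex 320 nm, em 620/665 nm) after 1 h at 25 °C, using Eu-cryptate anti-GST and XL665 anti-His antibodies. The protein pair was GST-Mdm2 (residues 25–108, L33E) with His-p53 (residues 1–132), each 6.25 nM in the protein dilution. T/C used no-compound control and no-p53 background, and IC50 came from sigmoid fitting.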

T1 sequence (Q00987 25-108 L33E): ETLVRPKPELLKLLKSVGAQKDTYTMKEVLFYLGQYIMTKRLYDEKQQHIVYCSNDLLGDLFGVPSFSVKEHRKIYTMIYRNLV

Compound | IC50
CO[C@]1(CO)CC[C@H](NC(=O)[C@@H]2NC3(CCC(C)(C)CC3)[C@@]3(C(=O)Nc4nc(Cl)ccc43)[C@H]2c2ccnc(Cl)c2F)CC1 [Example 83, (3′R, 4′S,5′R)-6″-chloro-4′-(2-chloro-3-fluoropyridin-4-yl)-N-[cis-4-(hydroxymethyl)-4-methoxycyclohexyl]-4,4-dimethyl-2″-oxo-1″,2″-dihydrodispiro[cyclohexane-1,2′-pyrrolidine-3′,3″-pyrrolo[2,3-b]pyridine]-5′-carboxamide] | 1 to 50 nM
O=C(N[C@@H]1CC[C@@H](CO)OC1)[C@@H]1NC2(CC(CF)(CF)C2)[C@@]2(C(=O)Nc3nc(Cl)ccc32)[C@H]1c1cccc(Cl)c1F [Example 84, (3′R, 4′S,5′R)-6″-chloro-4′-(3-chloro-2-fluorophenyl)-3,3-bis(fluoromethyl)-N-[(3R,6S)-6-(hydroxymethyl)tetrahydro-2H-pyran-3-yl]-2″-oxo-1″,2″-dihydrodispiro[cyclobutane-1,2′-pyrrolidine-3′,3″-pyrrolo[2,3-b]pyridine]-5′-carboxamide] | 50 to 100 nM
CC1(C)CCC2(CC1)N[C@@H](C(=O)N[C@H]1CC[C@](O)(CS(C)(=O)=O)CC1)[C@H](c1ccnc(Cl)c1F)[C@]21C(=O)Nc2cc(Cl)ccc21 [Example 87, (3′R, 4′S,5′R)-6″-chloro-4′-(2-chloro-3-fluoropyridin-4-yl)-N-{cis-4-hydroxy-4-[(methylsulfonyl)methyl]cyclohexyl}-4,4-dimethyl-2″-oxo-1″,2′-dihydrodispiro[cyclohexane-1,2′-pyrrolidine-3′,3″-indole]-5′-carboxamide] | 1 to 50 nM
O=C(N[C@@H]1CC[C@@H](CO)OC1)[C@@H]1NC2(CC(CF)(CF)C2)[C@@]2(C(=O)Nc3cc(Cl)ccc32)[C@H]1c1ccnc(Cl)c1F [Example 91, (3′R, 4′S,5′R)-6″-chloro-4′-(2-chloro-3-fluoropyridin-4-yl)-3,3-bis(fluoromethyl)-N-[(3R,6S)-6-(hydroxymethyl)tetrahydro-2H-pyran-3-yl]-2″-oxo-1″,2″-dihydrodispiro[cyclobutane-1,2′-pyrrolidine-3′,3″-indole]-5′-carboxamide] | 50 to 100 nM
CC1(C)CCC2(CC1)N[C@@H](C(=O)N[C@@H]1CC[C@@H](CO)OC1)[C@H](c1cncc(Cl)c1)[C@]21C(=O)Nc2cc(Cl)ccc21 [Example 92, (3′R, 4′R, 5′R)-6″-chloro-4′-(5-chloropyridin-3-yl)-N-[(3R,6S)-6-(hydroxymethyl)tetrahydro-2H-pyran-3-yl]-4,4-dimethyl-2″-oxo-1″,2″-dihydrodispiro[cyclohexane-1,2′-pyrrolidine-3′,3″-indole]-5′-carboxamide] | 1 to 50 nM
O=C(N[C@H]1CC[C@H](c2nnco2)CC1)[C@@H]1NC2(CC(CF)(CF)C2)[C@@]2(C(=O)Nc3cc(Cl)ccc32)[C@H]1c1ccnc(Cl)c1F [Example 95, (3′R, 4′S,5′R)-6″-chloro-4′-(2-chloro-3-fluoropyridin-4-yl)-3,3-bis(fluoromethyl)-N-[trans-4-(1,3,4-oxadiazol-2-yl)cyclohexyl]-2″-oxo-1″,2′-dihydrodispiro[cyclobutane-1,2′-pyrrolidine-3′,3″-indole]-5′-carboxamide] | 50 to 100 nM
CC1(C)CCC2(CC1)N[C@@H](C(=O)N[C@@H]1CC[C@@H](CS(C)(=O)=O)OC1)[C@H](c1ccnc(Cl)c1F)[C@]21C(=O)Nc2cc(Cl)ccc21 [Example 98, (3′R, 4′S,5′R)-6″-chloro-4′-(2-chloro-3-fluoropyridin-4-yl)-4,4-dimethyl-N-{(3R,6S)-6-[(methylsulfonyl)methyl]tetrahydro-2H-pyran-3-yl}-2″-oxo-1″,2″-dihydrodispiro[cyclohexane-1,2′-pyrrolidine-3′,3″-indole]-5′-carboxamide] | 50 to 100 nM
CNC(=O)[C@@H]1CC[C@@H](NC(=O)[C@@H]2NC3(CCC(C)(C)CC3)[C@@]3(C(=O)Nc4nc(Cl)ccc43)[C@H]2c2ccnc(Cl)c2F)CO1 [Example 101, (3′R, 4′S,5′R)-6″-chloro-4′-(2-chloro-3-fluoropyridin-4-yl)-4,4-dimethyl-N-[(3R,6S)-6-(methylcarbamoyl)tetrahydro-2H-pyran-3-yl]-2″-oxo-1″,2″-dihydrodispiro[cyclohexane-1,2′-pyrrolidine-3′,3″-pyrrolo[2,3-b]pyridine]-5′-carboxamide] | 1 to 50 nM
CC1(C)CCC2(CC1)N[C@@H](C(=O)N[C@@H]1CC[C@@H](C(=O)NC3CC3)OC1)[C@H](c1ccnc(Cl)c1F)[C@]21C(=O)Nc2nc(Cl)ccc21 [Example 102, (3′R, 4′S,5′R)-6″-chloro-4′-(2-chloro-3-fluoropyridin-4-yl)-N-[(3R,6S)-6-(cyclopropylcarbamoyl)tetrahydro-2H-pyran-3-yl]-4,4-dimethyl-2″-oxo-1″,2″-dihydrodispiro[cyclohexane-1,2′-pyrrolidine-3′,3″-pyrrolo[2,3-b]pyridine]-5′-carboxamide] | 1 to 50 nM
CC1(C)CCC2(CC1)N[C@@H](C(=O)N[C@@H]1CC[C@@H](C(=O)NCCO)OC1)[C@H](c1ccnc(Cl)c1F)[C@]21C(=O)Nc2cc(Cl)ccc21 [Example 103, (3′R, 4′S,5′R)-6″-chloro-4′-(2-chloro-3-fluoropyridin-4-yl)-N-{(3R,6S)-6-[(2-hydroxyethyl)carbamoyl]tetrahydro-2H-pyran-3-yl}-4,4-dimethyl-2″-oxo-1″,2″-dihydrodispiro[cyclohexane-1,2′-pyrrolidine-3′,3″-indole]-5′-carboxamide] | 1 to 50 nM
CN(C)C(=O)[C@@H]1CC[C@@H](NC(=O)[C@@H]2NC3(CCC(C)(C)CC3)[C@@]3(C(=O)Nc4nc(Cl)ccc43)[C@H]2c2ccnc(Cl)c2F)CO1 [Example 104, (3′R, 4′S,5′R)-6″-chloro-4′-(2-chloro-3-fluoropyridin-4-yl)-N-[(3R,6S)-6-(dimethylcarbamoyl)tetrahydro-2H-pyran-3-yl]-4,4-dimethyl-2″-oxo-1″,2″-dihydrodispiro[cyclohexane-1,2′-pyrrolidine-3′,3″-pyrrolo[2,3-b]pyridine]-5′-carboxamide] | 1 to 50 nM
C[C@H]1O[C@H](CO)CC[C@H]1NC(=O)[C@@H]1NC2(CCC(C)(C)CC2)[C@@]2(C(=O)Nc3cc(Cl)ccc32)[C@H]1c1ccnc(Cl)c1F [Example 105, (3′R, 4′S,5′R)-6″-chloro-4′-(2-chloro-3-fluoropyridin-4-yl)-N-[(2R,3R,6S)-6-(hydroxymethyl)-2-methyltetrahydro-2H-pyran-3-yl]-4,4-dimethyl-2″-oxo-1″,2″-dihydrodispiro[cyclohexane-1,2′-pyrrolidine-3′,3″-indole]-5′-carboxamide] | 1 to 50 nM
CC1(C)CCC2(CC1)N[C@@H](C(=O)N[C@@H]1CC[C@@H](C(=O)N3CCC3)OC1)[C@H](c1ccnc(Cl)c1F)[C@]21C(=O)Nc2cc(Cl)ccc21 [Example 106, (3′R, 4+S,5′R)—N-[(3R,6S)-6-(azetidin-1-ylcarbonyl)tetrahydro-2H-pyran-3-yl]-6″-chloro-4′-(2-chloro-3-fluoropyridin-4-yl)-4,4-dimethyl-2″-oxo-1″,2″-dihydrodispiro[cyclohexane-1,2′-pyrrolidine-3′,3″-indole]-5H-carboxamide] | 1 to 50 nM
CCNC(=O)[C@H]1C[C@H](NC(=O)[C@@H]2NC3(CCC(C)(C)CC3)[C@@]3(C(=O)Nc4cc(Cl)ccc43)[C@H]2c2ccnc(Cl)c2F)C1 [Example 118, (3′R,4′S,5′R)-6″-chloro-4′-(2-chloro-3-fluoropyridin-4-yl)-N-[trans-3-(ethylcarbamoyl)cyclobutyl]-4,4-dimethyl-2″-oxo-1″,2″-dihydrodispiro[cyclohexane-1,2′-pyrrolidine-3′,3″-indole]-5′-carboxamide] | 1 to 50 nM
CC1(C)CCC2(CC1)N[C@@H](C(=O)N[C@H]1C[C@H](CO)C1)[C@H](c1ccnc(Cl)c1F)[C@]21C(=O)Nc2cc(Cl)ccc21 [Example 119, (3′R,4′S,5′R)-6″-chloro-4′-(2-chloro-3-fluoropyridin-4-yl)-N-[trans-3-(hydroxymethyl)cyclobutyl]-4,4-dimethyl-2″-oxo-1″,2″-dihydrodispiro[cyclohexane-1,2′-pyrrolidine-3′,3″-indole]-5′-carboxamide] | 1 to 50 nM
CC1(C)CCC2(CC1)N[C@@H](C(=O)N[C@H]1C[C@H](C(=O)NC3CCOCC3)C1)[C@H](c1ccnc(Cl)c1F)[C@]21C(=O)Nc2cc(Cl)ccc21 [Example 120, (3′R, 4′S,5′R)-6″-chloro-4′-(2-chloro-3-fluoropyridin-4-yl)-4,4-dimethyl-2″-oxo-N-[trans-3-(tetrahydro-2H-pyran-4-ylcarbamoyl)cyclobutyl]-1″,2″-dihydrodispiro[cyclohexane-1,2′-pyrrolidine-3′,3″-indole]-5′-carboxamide] | 1 to 50 nM
NC(=O)[C@@H]1CC[C@@H](NC(=O)[C@@H]2NC3(CC(CF)(CF)C3)[C@@]3(C(=O)Nc4cc(Cl)ccc43)[C@H]2c2cccc(Cl)c2F)CO1 [Example 122, (3′R, 4′S,5′R)—N-[(3R, 6S)-6-carbamoyltetrahydro-2H-pyran-3-yl]-6″-chloro-4′-(3-chloro-2-fluorophenyl)-3,3-bis(fluoromethyl)-2″-oxo-1″,2″-dihydrodispiro[cyclobutane-1,2-pyrrolidine-3′,3″-indole]-5′-carboxamide] | 1 to 50 nM
O=C(N[C@H]1CC[C@H](c2nnco2)CC1)[C@@H]1NC2(CC(CF)(CF)C2)[C@@]2(C(=O)Nc3cc(Cl)ccc32)[C@H]1c1cccc(Cl)c1F [Example 123, (3′R, 4″S,5′R)-6′-chloro-4′-(3-chloro-2-fluorophenyl)-3,3-bis(fluoromethyl)-N-[trans-4-(1,3,4-oxadiazol-2-yl)cyclohexyl]-2″-oxo-1″,2″-dihydrodispiro[cyclobutane-1,2′-pyrrolidine-3′,3″-indole]-5′-carboxamide] | 50 to 100 nM
